Data from patent publication US9907307B2, “Aromatic compound and uses thereof” (SUMITOMO CHEMICAL COMPANY, LIMITED, priority 2014, dated 2018).

Test system: wheat septoria tritici blotch fungus (Mycosphaerella graminicola)
Assay: Control test against wheat septoria tritici blotch fungus, titer plate growth (Test Example 1)
Assay type: cell-based
Settings: 150 ppm in DMSO, 1 μl in 150 μl medium, 96-well plate, 18° C., 4 days

CCOC(=O)C(=O)c1ccccc1COc1ccc(-c2cc(Cl)n(C)n2)cc1C [present compound 1]
control activity (Equation 1, degree of growth by absorbance at 550 nm): ≥ 70%
